Source: US20220000969A1, “COMBINATIONS OF LYSOBACTIN AND AMINOGLYCOSIDES AGAINST DISEASES CAUSED BY GRAM-POSITIVE AND GRAM-NEGATIVE BACTERIA IN NON-HUMAN ANIMALS” (Bayer Animal Health GmbH, priority 2017, published 2022)
Starred links: 1 amine or outer side, 2 acyl side, 3 side chain; linkers in the order of their positions; H or OH if unused. Positions of bridges follow the written chain, without caps; N, C: chain ends. Non-standard residues stand in square brackets, D forms with d. Residues, ends and D or L forms follow the SMILES beside them. Phe(3R-OH) = O=C([C@@H](N[*:1])[C@H](O[*:3])c1ccccc1)[*:2]; Asn(3S-OH) = NC(=O)[C@@H](O)[C@H](N)C(=O)O; Leu(3R-OH) = CC(C)[C@@H](O)[C@H](N)C(=O)O; aThr = C[C@H](O)[C@H](N)C(=O)O

What was measured:
[1] = system: Streptococcus uberis ATCC 27958; assay: in vitro kill kinetics of lysobactin alone in milk; assay type: cell-based; conditions: lysobactin 4-64 μg/mL, at 48 h
Description: (§1) In order to assess the ability of lysobactin to kill bacteria in milk, flasks containing different concentrations of lysobactin in store-bought full-fat milk were inoculated with 1-2×10^6 colony forming units/ml of a representative strain of either Staphyloccus aureus or Streptococcus uberis. The flasks were incubated for 24-48 hours in a shaking water bath at 35+/−2° C., and viable bacterial counts in each flask were determined at several time-points by diluting and plating samples on agar plates. A reduction of the number of viable bacteria in the initial inoculum by at least 99.9% is defined as bactericidal activity.
(§2) The kill kinetics of lysobactin against Staphylococcus aureus ATCC 29740 and Streptococcus uberis ATCC 27958 in milk were determined for concentrations of lysobactin of 4, 8, 16, 32 and 64 μg/mL. Results are depicted in FIG. 1 (CFU: colony forming units). A cidality at 24 h and 48 h, respectively, can be postulated for S. aureus and S. uberis.

[2] = system: Staphylococcus aureus ATCC 29740; assay: in vitro kill kinetics of lysobactin alone in milk; assay type: cell-based; conditions: lysobactin 4-64 μg/mL, at 24 h
Description: as §1, §2

[3] = system: S. uberis; assay: resistance development during serial passaging; assay type: cell-based, Streptococcus uberis; conditions: serial passaging at sub-MIC concentrations over 33 days
Description: (§3) The appearance of MIC changes during constant exposure of bacteria to sub-MIC concentrations of lysobactin was assessed by serial passaging experiments. On the first day the MICs of S. aureus and S. uberis were assessed by microbroth dilution MIC methodology as described by the Clinical and Laboratory Standards Institute (CLSI). Each day for the following 33 consecutive days, bacteria from the well containing the highest concentrations allowing full growth were collected and used to inoculate new 96-well plates and to assess the MIC during constant exposure to lysobactin. The MIC obtained on each day was plotted over time. Rifampicin, which is known to result in quick changes of the MIC, was used as positive control.

[4] = system: Streptococcus uberis (ATCC 27958); assay: acute mouse mastitis model with S. uberis (example 14); assay type: in vivo, lactating CD-1 mice; conditions: paraffin formulation, 18 h after infection
Description: Twenty-three lactating CD-1 mice were experimentally infected 10-15 days after birth of the offspring with the mastitis pathogen Streptococcus uberis (ATCC 27958) on the left and right fourth mammary gland. Four hours after infection the animals were treated intrammarily with the test items. The study comprised four treatment groups with four mice each and a control group with seven mice. The mice of the treatment groups received paraffin formulations of lysobactin at 15 μg/gland or neomycin trisulfate at 1600 μg/gland, or two combinations of both with lysobactin at 15 μg plus neomycin trisulfate at 800 μg or 1600 μg per gland. Eighteen hours after infection the mice were killed and the mammary glands were removed and bacterial CFU were evaluated microbiologically.

[5] = system: Staphylococcus aureus; assay: dairy cow udder infection model with S. aureus (example 15); assay type: in vivo, lactating dairy cows; conditions: for microbiological cure rate: miglyol based suspension, two times; for SCC recovery rate: counts below 200.000 cells per mL
Excerpt: Fifteen healthy lactating dairy cows were experimentally infected with the mastitis pathogen Staphylococcus aureus on all four udder quarters.
Additionally a fourth group of udder quarters received miglyol as negative control. Treatments were randomly assigned to 60 udder quarters in total. Only udder quarters that were bacteriologically positive for the challenge organism immediately prior to treatment (n=49) were eligible for assessment of microbiological and clinical cure. The diseased quarters were treated with these intramammary formulations two times with an interval of 24 hours in between. Udders were clinically examined and milk samples were taken before treatment and several times after that until three weeks after the second administration by study personnel blinded to treatment.
Milk was inspected visually for deviation in its consistency and samples were evaluated for presence of the challenge organism and for somatic cell count to confirm the diagnosis mastitis. Diseased udder quarters were considered microbiologically cured when Staphylococcus aureus found in milk samples shortly before treatment could not be isolated from any milk sample taken within the time period between the third and the twenty-first day after the second treatment. Clinical cure was achieved when the local symptoms of mastitis had completely disappeared, and recovery of somatic cell counts (SCC) as parameter of udder inflammation was attained when all counts remained below 200.000 cells per mL of milk in the period mentioned above.

[6] = system: S. aureus; assay: resistance development during serial passaging; assay type: cell-based, Staphylococcus aureus; conditions: serial passaging at sub-MIC concentrations over 33 days
Description: as §3

[7] = system: Staphylococcus aureus; assay: Staphylococcus aureus acute mouse mastitis model; assay type: in vivo, lactating CD-1 mice
Description: The efficacy of lysobactin (formulated in a hydrogel at pH 4.7) was tested in a Staphylococcus aureus acute mouse mastitis model established at the University of Sherbrooke, Canada (Brouillette et al, Vet. Microbiol. (2004) 4:253-262), that is hereby incorporated by reference. Both the abdominal mammary glands (L4 and R4) of lactating CD-1 mice were intramammarily infected with 100 CFU (colony forming units) of S. aureus. The mice were treated intramammarily with lysobactin four hours after infection. Each treatment group contained at least 3 mice (6 quarters), 14 hours later (18 hours after inoculation) mice were sacrificed, mammary glands were harvested and the CFU content evaluated by plating 10-fold serial dilutions of mammary gland homogenates. The CFU content was expressed as log10 count. The detection limit was 200 CFU/g of gland. Glands with less than 200 CFU/g were regarded as cleared. The efficacy of lysobactin and neomycin trisulfate, either alone or in combination, was tested in a Staphylococcus aureus acute mouse mastitis model established at the University of Sherbrooke, Canada (Brouillette et al, Vet. Microbiol. (2004) 4:253-262), as described in example 5. Samples were formulated in paraffin.

[8] = system: E. coli P4:032; assay: in vitro kill kinetics of combinations in milk (synergy); assay type: cell-based; conditions: after 8 h, 32 μg/ml neomycin alone
Description: The flasks were incubated for 24-48 hours in a shaking water bath at 35+/−2° C., and viable bacterial counts in each flask were determined at several time-points by diluting and plating samples on agar plates.
The kill kinetics of lysobactin and neomycin, either alone or in combination, against E. coli P4:032 in milk were determined for concentration ratio of lysobactin:neomycin of […] (256 μg/ml lysobactin and 32 μg/ml neomycin).

[9] = Day 3 after second treatment, lysobactin 50 mg
[10] = Day 21 after second treatment, lysobactin 50 mg
[11] = Day 3 after second treatment, neomycin trisulfate 400 mg
[12] = Day 21 after second treatment, neomycin trisulfate 400 mg

In the case of CC[C@H](C)[C@@H]1NC(=O)[C@@H](CCCNC(=N)N)NC(=O)[C@H](CC(C)C)NC(=O)[C@H]([C@H](O)C(C)C)NC(=O)[C@@H](NC(=O)[C@H](CC(C)C)NC(=O)[C@H](N)CC(C)C)[C@@H](c2ccccc2)OC(=O)[C@H](CO)NC(=O)[C@H]([C@H](O)C(N)=O)NC(=O)CNC(=O)[C@H]([C@H](C)O)NC1=O [lysobactin] (H-[dL]L[Phe(3R-OH)][Leu(3R-OH)]L[dR]I[aThr]G[Asn(3S-OH)]S; ester 3-C), the “cidality (reduction of viable bacteria by at least 99.9%)” value [1] is reported as “cidality”, the “cidality (reduction of viable bacteria by at least 99.9%)” value [2] is reported as “cidality” and the “MIC change during constant exposure” value [3] is reported as “remain constant”. The “reduction of mean CFU content” value ([4]; 15 μg lysobactin per gland) was “ca. 2.6 log10”, the “local clinical cure rate” value [5, 9] was 71% and the microbiological cure rate [5, 9] was 71%. The SCC recovery rate [5, 9] was 35%, the “local clinical cure rate” value [5, 10] was 71% and the microbiological cure rate [5, 10] was 14%. The SCC recovery rate [5, 10] was 36%, the “MIC change during constant exposure” value [6] was “remain constant” and the “reduction of median CFU content” value ([7]; 50 μg lysobactin intramammary, formulated in paraffin) was “ca. 2.7 log10”. For the same compound, the “reduction of median CFU content” value ([7]; 50 μg lysobactin intramammary, hydrogel pH 4.7, 4 h after infection, glands 18 h after inoculation) was “ca. 4 log10” and the “elimination of infection from glands” value ([7]; 400 μg lysobactin intramammary, hydrogel pH 4.7, cleared = less than 200 CFU/g) was “eliminates the infection from all infected glands”.
For NC[C@@H]1O[C@H](O[C@@H]2[C@@H](CO)OC(O[C@@H]3[C@@H](O)[C@H](N)C[C@H](N)[C@H]3OC3O[C@H](CN)[C@@H](O)[C@H](O)[C@H]3N)[C@@H]2O)[C@H](N)[C@@H](O)[C@@H]1O (some centres unmarked) [neomycin trisulfate, reference compound], the “reduction of mean CFU content” value ([4]; 1600 μg neomycin trisulfate per gland) was about 1.5 log10, the “local clinical cure rate” value [5, 11] was 67% and the microbiological cure rate [5, 11] was 100%. For the same compound, the SCC recovery rate [5, 11] was 17%, the “local clinical cure rate” value [5, 12] was 100% and the microbiological cure rate [5, 12] was 42%. For the same compound, the SCC recovery rate [5, 12] was 50% and the “reduction of median CFU content” value ([7]; 1600 μg neomycin trisulfate intramammary, formulated in paraffin) was about 2.5 log10.
With neomycin the bacterial cell count [8] was “below the detection limit”.
